Measured values: ChEMBL document CHEMBL3739315, “Design, synthesis and biological evaluation of thiourea and nicotinamide-containing sorafenib analogs as antitumor agents” (Medchemcomm, 2015)
Activity calls are given as the source filed them. The calls are words filed in the database; no cut-off is given here.

Columns and labels:
[1] = test system: MDA-MB-231; test: Antiproliferative activity against human MDA-MB-231 cells by MTT assay; type: functional, cell-based
[2] = Antiproliferative activity against human HCT116 cells by MTT assay; type: functional, cell-based; conditions: HCT-116
[3] = test system: HepG2; test: Antiproliferative activity against human HepG2 cells by MTT assay; type: functional, cell-based
[4] = test system: Thoracic aorta; test: Ex-vivo anti-angiogenic activity in Sprague-Dawley rat thoracic aorta ring assessed as sprouting at 0.05 to 0.1 uM after 6 days; type: functional, tissue-based
[5] = Antiproliferative activity against human PC3 cells by MTT assay; type: functional, cell-based; conditions: PC-3
[6] = test system: HUVEC; test: Anti-angiogenic activity in human HUVEC assessed as inhibition of tube formation at 0.05 uM by matrigel assay; type: functional, cell-based
[7] = test system: HUVEC; test: Anti-angiogenic activity in human HUVEC assessed as inhibition of tube formation at 0.1 uM by matrigel assay; type: functional, cell-based

| IC50 [1] [µM] | IC50 [3] [µM] | SMILES | IC50 [2] [µM] | inhibition [4] | IC50 [5] [µM] | inhibition [6] | inhibition [7] |
| --- | --- | --- | --- | --- | --- | --- | --- |
| 2.67 | 4.55 | CNC(=O)c1ccc(Oc2cccc(NC(=S)Nc3cc(C(F)(F)F)cc(C(F)(F)F)c3)c2)nc1 | 2.5 | Active | 5.86 | Active |  |
| 69.3 | 26.7 | CNC(=O)c1ccc(Oc2cccc(NC(=S)Nc3ccc(F)c(F)c3)c2)nc1 | 38.2 |  | 23.1 |  |  |
| 3.02 | 8.53 | CNC(=O)c1ccc(Oc2cccc(NC(=S)Nc3ccc(Br)c(C(F)(F)F)c3)c2)nc1 | 3.12 |  | 2.67 |  |  |
| 31.5 | 85.3 | CNC(=O)c1ccc(Oc2cccc(NC(=S)Nc3ccc(OC)cc3)c2)nc1 | 49.8 |  | > 100 |  |  |
| 20.7 | 21.6 | CNC(=O)c1ccc(Oc2cccc(NC(=S)Nc3ccc(Cl)cc3Cl)c2)nc1 | 20.9 |  | 19.3 |  |  |
| 42.4 | 24.9 | CNC(=O)c1cc(Oc2cccc(NC(=S)Nc3ccc(Cl)c(C(F)(F)F)c3)c2)ccn1 | 14.6 |  | 16.4 |  |  |
| 13.3 | 20.2 | CNC(=O)c1ccc(Oc2cccc(NC(=S)Nc3ccc(F)c(C(F)(F)F)c3)c2)nc1 | 19 |  | 7.95 |  |  |
| 38.1 | 23.3 | CNC(=O)c1ccc(Oc2cccc(NC(=S)Nc3cccc(C(F)(F)F)c3)c2)nc1 | 36.6 |  | 15.4 |  |  |
| 66.5 | 29.4 | CNC(=O)c1ccc(Oc2cccc(NC(=S)Nc3ccc(Cl)cc3)c2)nc1 | 42.5 |  | 28.4 |  |  |
| 29.5 | 65.4 | CNC(=O)c1ccc(Oc2cccc(NC(=S)Nc3ccc(C)cc3)c2)nc1 | 53.7 |  | > 100 |  |  |
| 56 | > 100 | CNC(=O)c1ccc(Oc2cccc(NC(=S)Nc3ccc(OC(F)(F)F)cc3)c2)nc1 | 54.7 |  | > 100 |  |  |
| 17.8 | 10.5 | CNC(=O)c1cc(Oc2ccc(NC(=O)Nc3ccc(Cl)c(C(F)(F)F)c3)cc2)ccn1 [SORAFENIB] | 8.41 |  | 11 | Active | Active |
| 28.6 | > 100 | CNC(=O)c1ccc(Oc2cccc(NC(=S)Nc3ccc(F)c(Cl)c3)c2)nc1 | 25.4 |  | 18.4 |  |  |
| 21.7 | 42.5 | CNC(=O)c1ccc(Oc2cccc(NC(=S)Nc3ccc(F)cc3)c2)nc1 | 39.4 |  | 32.7 |  |  |
| 2.33 | 5.35 | CNC(=O)c1ccc(Oc2cccc(NC(=S)Nc3ccc(Cl)c(C(F)(F)F)c3)c2)nc1 | 2.21 | Active | 1.98 | Active |  |
| 38.6 | > 100 | CNC(=O)c1ccc(Oc2cccc(NC(=S)Nc3ccc(C)c(C)c3)c2)nc1 | 48.2 |  | 67.4 |  |  |
